Results on 11 molecules are retold here after ChEMBL document CHEMBL1201862, “PubChem BioAssay data set” (2004).

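The compound was tested at five concentrations on cells cultured in 96-well plates, with a 48-hour exposure period. The concentration for 50% growth inhibition is given as GI50.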 Active and inactive are the calls of the source. Rule as the data show it: active = GI50 up to about 1.1 µM and inactive = higher. Non-standard residues stand in square brackets, D forms with d. Residues, ends and D or L forms follow the SMILES beside them. *: point of attachment. Bn2Val = CC(C)[C@@H](C(=O)*)N(Cc1ccccc1)Cc1ccccc1; NMeV = CN[C@H](C(=O)O)C(C)C; X32 = COc1ccc(CN*)c(OC)c1; dNMeA = CN[C@H](C)C(=O)O

Test systems include ACHN; CAKI-1; EKVX; HCC 2998; HCT-15; HL-60; HT-29; KM12; LOX IMVI; M14; NCI-H460; OVCAR-3; OVCAR-5; PC-3; RXF 393; SK-MEL-2; SNB-75; SR; UACC-257; LXFL 529.
What all share (experiment): NCI tumour cell line growth inhibition, 48 h

For `CCOc1cc(/C=C2\N=C(c3ccccc3)N(c3nc4ccccc4s3)C2=O)ccc1O`, the GI50 in the test on ACHN was 37.3 µM (inactive); with CAKI-1 it was 39.9 µM (inactive); in the test with EKVX, > 100 µM (inactive); in the test on HCC 2998 it was 25.1 µM (inactive); with HCT-15 it was 24.5 µM; in the test with HL-60, 27.9 µM (inactive). Besides, the GI50 was 64.1 µM (inactive) in the test with HT-29; 48.8 µM (inactive) with KM12; 37.2 µM (inactive) in the test on LOX IMVI; 44.9 µM (inactive) with M14; 29.2 µM (inactive) in the test on NCI-H460; 46.8 µM (inactive) in the test on OVCAR-3. The GI50 in the test with OVCAR-5 was > 100 µM (inactive); in the test with PC-3, 27.9 µM (inactive); with RXF 393 it was > 100 µM (inactive); with SK-MEL-2, 23.8 µM (inactive); in the test on SNB-75 it was 51.2 µM (inactive); with SR it was 29.9 µM (inactive). The GI50 in the test on UACC-257 was 48.8 µM (inactive).
In the case of `Nc1ccc(C(=O)CC(N)C(=O)O)cc1O` (stereo not given), the GI50 with ACHN was > 100 µM (inactive); with CAKI-1, > 100 µM (inactive); in the test on EKVX, > 100 µM (inactive); in the test with HCC 2998, > 100 µM (inactive); in the test with HCT-15, more than 100 µM; in the test on HL-60 it was > 100 µM (inactive). Moreover, the GI50 in the test on HT-29, with KM12, in the test with LOX IMVI, with M14, in the test on NCI-H460 and in the test with OVCAR-3 was > 100 µM (inactive) in each case. The GI50 in the test on OVCAR-5, in the test on PC-3, in the test on RXF 393, with SK-MEL-2, in the test with SNB-75 and in the test with SR was > 100 µM (inactive) each time. In the test with UACC-257, the GI50 is > 100 µM (inactive).
Turning to `Cc1ccc(S(=O)(=O)Oc2coc(CO)cc2=O)cc1`, the GI50 was 18 µM (inactive) in the test on ACHN; 4.42 µM (inactive) with CAKI-1; 15.3 µM (inactive) in the test with EKVX; 13.7 µM (inactive) in the test with HCC 2998; 13.3 µM in the test with HCT-15; 3.14 µM (inactive) in the test on HL-60. For the same molecule, the GI50 in the test with HT-29 was 12.4 µM (inactive); in the test with KM12, 4.86 µM (inactive); with LOX IMVI, 3.05 µM (inactive); in the test on M14, 13.1 µM (inactive); in the test with NCI-H460 it was 14.4 µM (inactive); with OVCAR-3, 15.3 µM (inactive). For the same molecule, the GI50 is 17.8 µM (inactive) in the test with OVCAR-5; 15.1 µM (inactive) with PC-3; 13.5 µM (inactive) with RXF 393; 20.3 µM (inactive) in the test on SK-MEL-2; 14.2 µM (inactive) in the test on SNB-75; 3.82 µM (inactive) in the test with SR. Further, the GI50 in the test on UACC-257 is 15.3 µM (inactive).
`O=C1C(=O)N(c2nccs2)C(=O)C(=O)C1c1nc2ccccc2s1`: the GI50 was > 100 µM (inactive) with ACHN; > 100 µM (inactive) in the test with CAKI-1; > 100 µM (inactive) in the test with EKVX; > 100 µM (inactive) in the test on HCC 2998; more than 100 µM in the test on HCT-15; > 100 µM (inactive) with HT-29. Further, the GI50 in the test with KM12 was > 100 µM (inactive); with LOX IMVI, > 100 µM (inactive); in the test with LXFL 529, 94 µM (inactive); in the test with M14, > 100 µM (inactive); in the test on NCI-H460, > 100 µM (inactive); with OVCAR-3 it was > 100 µM (inactive). In addition, the GI50 in the test on OVCAR-5, with RXF 393, in the test on SK-MEL-2, with SNB-75 and in the test with UACC-257 was > 100 µM (inactive) throughout.
For the molecule `COc1ccc2c(c1)CN([C@@H](C)[C@H]1CC[C@H]3[C@@H]4CC[C@H]5C[C@@H](O)CC[C@]5(C)[C@H]4CC[C@]13C)CO2`, the GI50 in the test on ACHN is 3.21 µM (inactive); in the test on CAKI-1, 4.75 µM (inactive); with EKVX, 3.36 µM (inactive); in the test on HCC 2998, 1.61 µM (inactive); in the test with HCT-15, 1.32 µM; in the test with HL-60, 2.47 µM (inactive). Besides, the GI50 in the test with HT-29 was 0.964 µM (active); in the test on KM12, 1.75 µM (inactive); in the test on LOX IMVI it was 1.58 µM (inactive); with M14, 1.57 µM (inactive); with NCI-H460, 1.23 µM (inactive); in the test with OVCAR-3 it was 5.79 µM (inactive). Further, the GI50 in the test with OVCAR-5 is 3.13 µM (inactive); in the test on PC-3, 2.44 µM (inactive); in the test with RXF 393, 1.19 µM (inactive); with SK-MEL-2 it was 1.96 µM (inactive); with SNB-75 it was 2.37 µM (inactive); with SR, 0.321 µM (active). In addition, the GI50 in the test with UACC-257 is 2.2 µM (inactive).
For `Cc1cc(Cl)ccc1NC(=O)C(=O)C(C(=O)c1ccc2ccccc2c1)C1OC(=O)c2ccccc21` (stereo not given), the GI50 in the test with ACHN is 23.2 µM (inactive); with CAKI-1, 11.6 µM (inactive); in the test with EKVX it was 29.2 µM (inactive); in the test on HCC 2998 it was 10.2 µM (inactive); in the test on HCT-15, 18.7 µM; in the test with HT-29 it was 28.4 µM (inactive). In addition, the GI50 was 17 µM (inactive) in the test with KM12; 13.2 µM (inactive) in the test with LOX IMVI; 6.47 µM (inactive) with LXFL 529; 16 µM (inactive) in the test on M14; 6.93 µM (inactive) with NCI-H460; 9.98 µM (inactive) with OVCAR-3. Further, the GI50 in the test on OVCAR-5 was 18.6 µM (inactive); in the test on RXF 393 it was 1.83 µM (inactive); in the test with SK-MEL-2, 12.8 µM (inactive); in the test on SNB-75, 10.1 µM (inactive); in the test with UACC-257, 16.1 µM (inactive).
In the case of `c1cncc(C2(c3cc4ccccc4[nH]3)COCO2)c1` (stereo not given), the GI50 with ACHN is 77.3 µM (inactive); in the test on CAKI-1, > 100 µM (inactive); in the test with EKVX, > 100 µM (inactive); in the test on HCC 2998 it was > 100 µM (inactive); in the test with HCT-15 it was more than 100 µM; in the test with HL-60 it was 32.7 µM (inactive). Also, the GI50 in the test on HT-29, in the test on KM12, in the test on LOX IMVI, in the test on M14, in the test on NCI-H460 and in the test on OVCAR-3 was > 100 µM (inactive) throughout. The GI50 with OVCAR-5 is > 100 µM (inactive); with PC-3, 94.2 µM (inactive); in the test with RXF 393, > 100 µM (inactive); with SK-MEL-2, > 100 µM (inactive); in the test on SNB-75, > 100 µM (inactive); in the test on SR, > 100 µM (inactive). Moreover, in the test on UACC-257, the GI50 is > 100 µM (inactive).
As for `CCOC(=O)c1cnc2oc(/C=N/N3CC(CN4CCOCC4)OC3=O)cc2c1O` (stereo not given), the GI50 was > 100 µM (inactive) in the test on ACHN; > 100 µM (inactive) in the test with CAKI-1; > 100 µM (inactive) in the test on EKVX; > 100 µM (inactive) with HCC 2998; more than 100 µM with HCT-15; > 100 µM (inactive) with HL-60. Moreover, the GI50 in the test on HT-29, in the test with KM12, in the test on LOX IMVI, in the test on M14, in the test with NCI-H460 and with OVCAR-3 was > 100 µM (inactive) each time. The GI50 in the test on OVCAR-5, with PC-3, in the test with RXF 393, in the test with SK-MEL-2, with SNB-75 and in the test on SR was > 100 µM (inactive) each time. Further, the GI50 with UACC-257 was > 100 µM (inactive).
As for `OC(CC(c1ccccc1)c1ccc(Cl)cc1)c1ccc(Cl)cc1` (stereo not given), the GI50 was 27.1 µM (inactive) in the test on ACHN; 27.8 µM (inactive) with CAKI-1; 30.5 µM (inactive) with EKVX; 45.5 µM (inactive) in the test on HCC 2998; 33.4 µM in the test on HCT-15; 24.9 µM (inactive) in the test on HL-60. For the same molecule, the GI50 in the test on HT-29 is 35.6 µM (inactive); with KM12 it was 30.8 µM (inactive); in the test on LOX IMVI, 27.9 µM (inactive); in the test on M14 it was 37.3 µM (inactive); with NCI-H460, 30.1 µM (inactive); in the test on OVCAR-3, 33.6 µM (inactive). Also, the GI50 with OVCAR-5 is 24.3 µM (inactive); with PC-3, 34.9 µM (inactive); in the test with RXF 393 it was 24.8 µM (inactive); with SK-MEL-2 it was 24 µM (inactive); in the test with SNB-75, 29.4 µM (inactive); in the test with SR, 27.3 µM (inactive). Besides, in the test on UACC-257, the GI50 was 29.4 µM (inactive).
Take `N#Cc1nc(CCC(C(=O)O)N2C(=O)c3ccccc3C2=O)oc1N` (stereo not given): the GI50 in the test with ACHN is > 100 µM (inactive); in the test with CAKI-1, > 100 µM (inactive); in the test on EKVX, > 100 µM (inactive); with HCC 2998, > 100 µM (inactive); in the test with HCT-15 it was more than 100 µM; in the test with HL-60 it was > 100 µM (inactive). Besides, the GI50 is > 100 µM (inactive) in the test on HT-29; > 100 µM (inactive) in the test on KM12; > 10 µM (inactive) with LOX IMVI; > 100 µM (inactive) with M14; > 100 µM (inactive) with NCI-H460; > 100 µM (inactive) in the test with OVCAR-3. Moreover, the GI50 in the test on OVCAR-5, with PC-3, with RXF 393, in the test on SK-MEL-2, in the test on SNB-75 and in the test with SR was > 100 µM (inactive) throughout. Further, in the test with UACC-257, the GI50 is > 100 µM (inactive).
With `COc1ccc(CNC(=O)[C@@H]2CCCN2C(=O)[C@@H](C)N(C)C(=O)[C@H](C(C)C)N(C)C(=O)[C@@H](NC(=O)[C@H](C(C)C)N(Cc2ccccc2)Cc2ccccc2)C(C)C)c(OC)c1` (Bn2Val-V[NMeV][dNMeA]P-X32), the GI50 in the test on ACHN is 3.75 µM (inactive); with CAKI-1, 4.04 µM (inactive); in the test with EKVX, 2.69 µM (inactive); in the test with HCC 2998, 2.33 µM (inactive); in the test with HCT-15, 3.05 µM; with HL-60 it was 0.0561 µM (active). The GI50 in the test on HT-29 was 1.74 µM (inactive); with KM12 it was 2.36 µM (inactive); in the test on LOX IMVI, 2.84 µM (inactive); in the test on M14, 2.84 µM (inactive); in the test on NCI-H460, 3.52 µM (inactive); in the test with OVCAR-3, 3.63 µM (inactive). The GI50 is 1.59 µM (inactive) in the test with OVCAR-5; 2.9 µM (inactive) with PC-3; 1.85 µM (inactive) in the test with RXF 393; 1.77 µM (inactive) in the test with SK-MEL-2; 1.52 µM (inactive) in the test with SNB-75; 2.15 µM (inactive) in the test with SR. Moreover, the GI50 in the test on UACC-257 is 3.44 µM (inactive).
